Data on 1 compound can be found in patent US9307757B2, “Monoalkyl sulfosuccinates in pesticide formulations and applications” (AKZO NOBEL CHEMICALS INTERNATIONAL B.V., priority 2009, dated 2016).

Series [1] in a line: Stability and uniformity of high-load glufosinate-ammonium formulation (FIG. 1). It counts as physicochemical. Conditions: 1:1 mixture glufosinate-ammonium active and ACAR 7053 (C8 ether sulfate adjuvant), hydrotrope present, FIG. 1C. An excerpt:
The unique structure of the monoalkyl sulfosuccinates of structure (I) renders them the capability of compatibilizing or stabilizing the highly concentrated components in the pesticide/herbicide formulation. Such capability is best illustrated by the performance of monoalkylsulfosuccinates, particularly of sodium monobutyl sulfosuccinate in the high load glufosinate-ammonium formulations. In these formulations, the active loading is at the highest (280 g/l). As the active content increases, the adjuvant content increases and the water content is reduced. Consequently, there is not enough water to solubilize both the herbicide active and the adjuvant. Without the action of a hydrotrope, the two components would separate.
Without hydrotrope, the formulation is a hazy mixture when freshly mixed (FIG. 1A) that separates into two layers upon standing (FIG. 1B).

Series [2] is described as follows: Designed experiment: percentage of separation of aqueous mixtures of pesticide, adjuvant and hydrotrope (FIG. 2 ternary diagram). It counts as physicochemical. Conditions: pesticide formulation containing AGAR 7053 as adjuvant. An excerpt:
The performance of the sodium monobutyl sulfosuccinate as hydrotrope for pesticide formulation containing the AGAR 7053 as adjuvant was also confirmed by the results of a designed experiment.
The numbers associated with the small colored bar in the upper left hand corner of the Figure give the percentage of separation in the samples. The colors in the bar are related to the colored regions in the ternary diagram. As the regions in the graph go from red to blue the percentage of separation goes to zero.

In the case of `CCCCOC(=O)C(CC(=O)[O-])S(=O)(=O)O.[Na+]` (stereo not drawn) [sodium monobutyl sulfosuccinate], in series [1], the “appearance of formulation when freshly mixed” value is listed as “clear”; the “stability of formulation after prolonged standing” value is “retains that clarity and uniformity”. For the same compound, the “performance as hydrotrope (separation of samples)” value in series [2] is listed as “performed as a hydrotrope over a wide range of concentrations”.
